In article PMC6271078 (Molecules, 2014):
Converted amounts (≈) assume the structure as drawn.

Tests used:
Aqueous solubility = format: physicochemical
[1] = cited from earlier work

- Times Increased of Aqueous Solubility (Comp. vs. Rapa) (Aqueous solubility; ratio of compound solubility to Rapa solubility): 1
- solubility (Aqueous solubility; water): 2.6 µg/mL (≈ 2.84 µM)
SMILES: CO[C@H]1C[C@@H]2CC[C@@H](C)[C@@](O)(O2)C(=O)C(=O)N2CCCC[C@H]2C(=O)O[C@H]([C@H](C)C[C@@H]2CC[C@@H](O)[C@H](OC)C2)CC(=O)[C@H](C)/C=C(\C)[C@@H](O)[C@@H](OC)C(=O)[C@H](C)C[C@H](C)/C=C/C=C/C=C/1C [Rapa, Rapamycin, reference compound]
- oral bioavailability [1]: 10%
